{"source": "patent US20240148693A1", "about": "“COMPOSITION, PREPARATION METHOD THEREFOR, AND USE THEREOF” (CHANGSHA JINGYI PHARMACEUTICAL TECHNOLOGY CO., LTD, priority 2021, published 2024)", "origin": "cited, not measured here", "test_system": "synaptic vesicle glycoprotein 2A (SV2A)", "conditions": "preclinical animal experiments", "data": [{"compound": "CCC[C@@H]1CC(=O)N([C@@H](CC)C(N)=O)C1", "note": "[Brivaracetam]", "values": [{"measurement": "Affinity for SV2A relative to levetiracetam", "result": "15-30 times"}]}]}
